The text below walks through data of patent US20260376293A1, “METHODS FOR STUDYING GPR158 PHARMACOLOGY AND IDENTIFICATION OF ITS LIGANDS” (UNIVERSITY OF FLORIDA RESEARCH FOUNDATION, INCORPORATED, priority 2022, published 2026).

For this test, the target named is T1, GPR158 (Homo sapiens, UniProt Q5T848).
T1 sequence (Q5T848 24-1215): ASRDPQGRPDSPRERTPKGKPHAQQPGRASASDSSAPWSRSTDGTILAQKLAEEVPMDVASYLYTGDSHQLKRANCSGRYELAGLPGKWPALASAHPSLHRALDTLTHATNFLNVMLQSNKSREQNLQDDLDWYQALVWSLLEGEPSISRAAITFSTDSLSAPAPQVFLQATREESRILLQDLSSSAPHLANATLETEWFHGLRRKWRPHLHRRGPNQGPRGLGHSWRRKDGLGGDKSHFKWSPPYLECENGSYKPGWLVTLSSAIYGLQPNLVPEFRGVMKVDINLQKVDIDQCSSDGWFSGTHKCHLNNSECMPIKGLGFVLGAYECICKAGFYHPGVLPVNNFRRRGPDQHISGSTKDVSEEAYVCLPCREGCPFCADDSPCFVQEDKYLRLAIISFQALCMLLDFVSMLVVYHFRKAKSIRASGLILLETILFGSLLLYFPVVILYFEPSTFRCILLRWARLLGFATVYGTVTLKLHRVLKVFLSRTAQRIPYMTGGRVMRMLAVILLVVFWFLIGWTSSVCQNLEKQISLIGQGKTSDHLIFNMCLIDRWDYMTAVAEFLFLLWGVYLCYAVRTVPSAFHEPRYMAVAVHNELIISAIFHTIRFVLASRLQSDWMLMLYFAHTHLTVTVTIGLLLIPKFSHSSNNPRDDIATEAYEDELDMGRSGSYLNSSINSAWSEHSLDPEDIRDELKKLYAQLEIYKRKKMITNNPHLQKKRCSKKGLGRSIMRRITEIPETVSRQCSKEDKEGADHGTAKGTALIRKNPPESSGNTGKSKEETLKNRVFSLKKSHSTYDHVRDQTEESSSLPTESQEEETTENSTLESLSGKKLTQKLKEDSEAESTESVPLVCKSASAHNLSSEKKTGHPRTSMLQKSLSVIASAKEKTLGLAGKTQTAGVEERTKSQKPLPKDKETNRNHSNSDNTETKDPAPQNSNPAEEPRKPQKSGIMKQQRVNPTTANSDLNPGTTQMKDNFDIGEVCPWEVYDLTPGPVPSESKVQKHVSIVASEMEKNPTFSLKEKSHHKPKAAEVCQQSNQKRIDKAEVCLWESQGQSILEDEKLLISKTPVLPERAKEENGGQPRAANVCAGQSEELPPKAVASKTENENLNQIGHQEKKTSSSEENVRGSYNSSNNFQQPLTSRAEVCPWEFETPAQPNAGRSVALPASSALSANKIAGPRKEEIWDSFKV
As to the kind of experiment: Membrane radioligand saturation binding (Scatchard). Particulars: for Kd: Scatchard plot, HEK293 membranes expressing GPR158, n=4. Further details: expressed in transfected cells; host or cells: HEK293FT. The procedure: FIGS. 9A-9H. Direct interaction of glycine with GPR158 A) Schematics of assay design for detecting glycine binding to GPR158 by flow cytometry. Cells transfected with GPR158 are incubated with FITC-glycine and fluorescence labeling of cells is detected by flow cytometry. B) Representative flow cytometry histogram showing distribution of cellular populations after sorting. C) Quantification of FITC-glycine binding detected in flow cytometry binding experiments. The median of fluorescence (MFI) is quantified and plotted. Error bars are s.e.m. values, N=3, **p<0.01, ****p<0.0001, two-way ANOVA. D) Schematics of the radioligand binding assay. E) Quantification of ^3H-glycine binding to membrane expressing GPR158. Count Per minute (CPM) are measured and plotted. Data shown mean of 4 independent experiments error bars are s.e.m. values, n=4. […] Data shown mean of 4 independent experiments error bars are s.e.m. values, n=4. […] Control (thick line), GPR158 (thin line) I) Quantification of binding determined by fitting the integrated isotherm to an independent binding model.
Next, the inventors performed radioligand binding assays examining binding of [^3H]-labeled glycine to HEK293 cells expressing GPR158 (FIG. 7A). […] The inventors detected saturable [^3H]-glycine binding to membranes containing GPR158 is substantial excess over linear non-specific binding to membranes devoid of GPR158 (FIG. 9E). […]
Membrane binding assay was conducted using HEK293FT cells cultured in 6 well plates at the density of 10^6 per well and transfected with 2 μg of cDNA of GPR158 or empty pcDNA3.1+ for ctrl cells using Metafectene Pro. […] Finally, each filter was incubated in 5 ml of scintillation cocktail (Ecoscint XR, National Diagnostics), homogenized and radioactivity were measured using the liquid scintillation counter Hidex 600SL. The saturation binding curve, Scatchard plots and affinity KD and Bmax constants were calculated using Graphpad Prism 9.0 by fitting a non-linear regression binding saturation curve. […]

Turning to `NCC(=O)O` [^3H-glycine, [^3H]-glycine], the Kd (as a rule, the concentration at which binding is half-saturated) came to 2620 ± 1820 nM. For the same molecule, the “binding to membranes containing GPR158” value (excess over linear non-specific binding to membranes devoid of GPR158) is given as “saturable”.

Turning to `NCC(=O)O` [glycine], the Kd was ~3000 nM.
